Results from ChEMBL document CHEMBL3414489, “3,4-Diaza-bicyclo[4.1.0]hept-4-en-2-one phenoxypropylamine analogs of irdabisant (CEP-26401) as potent histamine-3 receptor inverse agonists with robust wake-promoting activity” (Eur J Med Chem, 2015).

What was measured:
[1] = biological target: Histamine H3 receptor (Homo sapiens, UniProt Q9Y5N1); test: Binding affinity to human histamine H3 receptor
[2] = biological target: Histamine H3 receptor (Rattus norvegicus, UniProt Q9QYN8); test: Binding affinity to rat histamine H3 receptor
Histamine H3 receptor (Rattus norvegicus, UniProt Q9QYN8), sequence (Q9QYN8 whole entry): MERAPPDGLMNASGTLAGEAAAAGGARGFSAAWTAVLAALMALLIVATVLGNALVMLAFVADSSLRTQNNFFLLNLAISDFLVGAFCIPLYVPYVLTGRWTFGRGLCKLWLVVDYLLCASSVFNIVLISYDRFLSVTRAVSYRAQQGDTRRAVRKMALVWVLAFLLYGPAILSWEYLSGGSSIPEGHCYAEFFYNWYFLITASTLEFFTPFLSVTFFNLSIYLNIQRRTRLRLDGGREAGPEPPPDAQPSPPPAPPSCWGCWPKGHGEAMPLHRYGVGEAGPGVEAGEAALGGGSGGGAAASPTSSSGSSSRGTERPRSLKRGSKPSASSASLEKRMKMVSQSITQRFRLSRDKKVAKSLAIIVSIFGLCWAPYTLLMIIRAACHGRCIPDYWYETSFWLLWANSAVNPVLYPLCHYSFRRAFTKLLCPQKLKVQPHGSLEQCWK

[3] = Clearance in iv dosed rat; format: ADME, organism-based; conditions: in vivo
[4] = Half life in monkey liver microsomes; format: ADME, Macaca mulatta; conditions: rhesus monkey
[5] = Half life in rat liver microsomes; format: ADME
[6] = Half life in dog liver microsomes; format: ADME, Canis lupus familiaris
[7] = Half life in iv dosed rat; format: ADME, organism-based; conditions: in vivo
[8] = biological target: T1, Cytochrome P450 1A2 (Homo sapiens, UniProt P05177); test: Inhibition of CYP1A2 (unknown origin); format: ADME
T1 sequence (P05177 whole entry): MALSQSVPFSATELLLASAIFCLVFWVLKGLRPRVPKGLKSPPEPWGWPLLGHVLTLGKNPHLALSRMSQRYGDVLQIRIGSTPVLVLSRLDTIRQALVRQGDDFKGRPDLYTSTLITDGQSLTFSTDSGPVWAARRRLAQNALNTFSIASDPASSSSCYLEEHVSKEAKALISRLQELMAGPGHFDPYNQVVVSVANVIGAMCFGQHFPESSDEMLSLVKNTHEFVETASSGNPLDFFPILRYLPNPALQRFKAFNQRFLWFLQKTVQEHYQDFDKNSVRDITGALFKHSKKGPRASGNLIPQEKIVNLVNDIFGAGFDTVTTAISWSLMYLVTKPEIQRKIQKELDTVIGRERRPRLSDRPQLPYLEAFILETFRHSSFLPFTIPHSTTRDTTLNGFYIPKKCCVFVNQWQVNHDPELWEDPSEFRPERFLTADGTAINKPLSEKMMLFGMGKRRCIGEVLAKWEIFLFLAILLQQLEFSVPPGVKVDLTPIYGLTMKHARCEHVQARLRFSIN

[9] = Oral bioavailability in rat; format: ADME, organism-based; conditions: in vivo
[10] = Half life in mouse liver microsomes; format: ADME
[11] = Half life in human liver microsomes; format: ADME

Histamine H3 receptor (Homo sapiens, UniProt Q9Y5N1), sequence (Q9Y5N1 whole entry): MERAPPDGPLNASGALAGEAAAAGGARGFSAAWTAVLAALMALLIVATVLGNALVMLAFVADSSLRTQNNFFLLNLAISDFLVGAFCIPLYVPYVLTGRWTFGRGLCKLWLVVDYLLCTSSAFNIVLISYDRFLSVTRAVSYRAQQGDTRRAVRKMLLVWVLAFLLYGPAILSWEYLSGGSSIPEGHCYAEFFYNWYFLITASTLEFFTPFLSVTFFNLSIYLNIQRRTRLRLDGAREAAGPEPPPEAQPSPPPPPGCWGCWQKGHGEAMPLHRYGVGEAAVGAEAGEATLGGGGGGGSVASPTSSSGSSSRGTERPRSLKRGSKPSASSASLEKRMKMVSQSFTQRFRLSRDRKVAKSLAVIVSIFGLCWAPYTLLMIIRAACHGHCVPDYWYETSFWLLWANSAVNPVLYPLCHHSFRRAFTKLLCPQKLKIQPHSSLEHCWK

Compound	Ki [1] [nM]	Ki [2] [nM]	clearance [3] [mL/min/kg]	half-life [4] [min]	half-life [5] [min]	half-life [6] [min]	half-life [7] [min]	IC50 [8] [nM]	bioavailability [9] [%]	half-life [10] [min]	half-life [11] [min]
C[C@H]1CCCN1CCCOc1ccc(C2=NNC(=O)C3CC23)cc1 (mixture of isomers)	13	57									
C[C@@H]1CCCN1CCCOc1ccc(C2=NNC(=O)C3CC23)cc1 (some centres not stated)	3.7	13	11	> 40	> 40	> 40	84	> 30000	> 25	> 40	> 40
Cc1cc(OCCCN2CCC[C@@H]2C)ccc1C1=NNC(=O)C2CC12 (mixture of isomers)	49	103									
Cc1cc(OCCCN2CCCCC2)ccc1C1=NNC(=O)C2CC12 (racemic)	39	139									
